In this assay the test system is MDA-MB-468 breast. In words: NCI anticancer screen, dose series, 48 h.

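Following 48 hours of exposure in 96-well plates, responses at five concentrations were used to interpolate endpoints linearly. Here, GI50 denotes the concentration required for 50% inhibition of growth. TGI: concentration producing complete growth inhibition.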

Consider `C/C(=N\NC(=S)Nc1ccccc1)c1ccccn1`, for which the GI50 was less than 0.0132 µM and the TGI was 0.115 µM.

On to `N=C(N)c1ccc(-c2ccc(-c3ccccc3)o2)cc1`, for which the GI50 is 2.12 µM and the TGI was found to be 4.1 µM.

On to `COc1cccc(C2C3=C(COC3=O)N(CCO)c3cc4c(cc32)CCC4)c1` (stereo not drawn), for which the GI50 was 0.0216 µM and the TGI was 0.177 µM.

For the compound `CCCCCCCCCCCCCCCc1ccc(C(=O)C[n+]2ccccc2)cc1`, the GI50 is 1.55 µM and the TGI was determined as 2.89 µM.

For the compound `CC1OC(OC2C(OC3CCC4(C)C(CCC5(C)C4CC=C4C6CC(C)(C)CCC6(CO)C(O)CC45C)C3(C)C)OC(C(=O)O)C(OC3OC(COC4OC(CO)C(O)C(O)C4O)C(O)C(O)C3O)C2O)C(O)C(O)C1O` (stereo not drawn), the GI50 is 1.85 µM and the TGI turned out to be 6.81 µM.

In the case of `COc1cc2nc(-c3ccc(Cl)cc3)cc(OCCCN3CCC(O)CC3)c2cc1OC`, the GI50 is 1.56 µM and the TGI is 4.04 µM.

For `Cn1cc(-c2nonc2-c2cn(C)c3ccc(Br)cc23)c2ccccc21`, the GI50 is 1.56 µM and the TGI is 5.17 µM.

With `C#CCSc1nnnn1-c1ccc(Br)c(C)c1`, the GI50 is 21.2 µM and the TGI came out at 79.7 µM.

Regarding `c1ccc(CNc2nc(Nc3ccc(-c4nc5ccccc5[nH]4)cc3)c3cn[nH]c3n2)cc1`, the GI50 was 2.05 µM and the TGI was determined as 4.81 µM.

Consider `Cn1cc(-c2csc(-c3cn(C)c4ncccc34)n2)c2ccccc21`, for which the GI50 is 0.445 µM and the TGI turned out to be 6.6 µM.

For `Cc1nc(N=C(N)N)nc2ccc3ccccc3c12`, the GI50 is 0.43 µM and the TGI worked out at 2.06 µM.

Consider `COc1cccc(N2CCN(C3=C(Cl)C(=O)c4ncccc4C3=O)CC2)c1`, for which the GI50 is 1.75 µM and the TGI amounted to 3.43 µM.

For the compound `O=S(=O)(Nc1ccc(-c2nc(-c3cccc(O)c3)c(-c3ccnc(Br)c3)[nH]2)cc1)c1ccccc1`, the GI50 was 1.85 µM and the TGI worked out at 5.47 µM.

Consider `CCN(CC)c1ccc(/C=C/C2=[N+](C)c3ccccc3C2(C)C)cc1`, for which the GI50 is 0.175 µM and the TGI was 5.88 µM.

In the case of `O=C(Nc1ccc(-n2cc(-c3ccncc3)c(-c3ccc(O)c(Cl)c3)n2)cc1)c1ccc(Cl)c(Cl)c1`, the GI50 was 4.25 µM and the TGI was greater than 32.5 µM.

As to `O=[N+]([O-])c1ccc([I+]c2ccccc2)cc1`, the GI50 is 1.25 µM and the TGI came out at 4.13 µM.

As for `COc1cc2c(c(Br)c1N)-c1cc(Br)c(N)cc1C2=O`, the GI50 was 0.0172 µM and the TGI is 0.0421 µM.

As to `Cn1cccc1C1CC(=O)N(CCC[Se]C#N)C1=O` (stereo not drawn), the GI50 is 2.68 µM and the TGI was 9.29 µM.

On to `CC[C@]12C=CCN3CC[C@]4(C(=C(C(=O)OC)C1)Nc1ccccc14)[C@@H]32`, for which the GI50 was 3.4 µM and the TGI came to 15 µM.

Turning to `Nc1nccc(C#Cc2cncnc2Nc2ccc(OCc3cccc(F)c3)c(Cl)c2)n1`, the GI50 was 1.51 µM and the TGI turned out to be 4.37 µM.

With `CCOC(=O)/C(=C/c1c(-c2ccccc2)[nH]c2ccccc12)C(=O)c1ccc(Cl)cc1`, the GI50 is 4.36 µM and the TGI was greater than 100 µM.

Turning to `O=C(/C=C/c1cccnc1)/C=C/c1cccnc1`, the GI50 is 0.762 µM and the TGI came to 2.22 µM.

`C=C(CNCCc1ccc(O)cc1)[C@@H]1CC[C@]2(CO)CC[C@]3(C)[C@H](CC[C@@H]4[C@@]5(C)CCC(NCCO)C(C)(C)[C@@H]5CC[C@]43C)[C@@H]12` (stereo partly drawn): the GI50 was 1.26 µM and the TGI is 2.92 µM.

Regarding `O=C1/C(=C\c2ccccc2)CN(C(=O)c2ccccc2F)C/C1=C\c1ccccc1`, the GI50 was 1.81 µM and the TGI is 3.89 µM.

As to `CCN1C(=O)N(CC)C2C1NN=c1s/c(=C\c3ccc([N+](=O)[O-])cc3)c(=O)n12` (stereo not drawn), the GI50 is 0.409 µM and the TGI was 7.14 µM.

For the compound `C=C1CCC2C3(C)COC(c4cccc(Cl)c4)OC3CCC2(C)C1/C=C/C1=CCOC1=O` (stereo not drawn), the GI50 was 1.42 µM and the TGI is 7.82 µM.

In the case of `c1ccc(COc2ccc(Nc3ncnc4ccc(-c5ccco5)cc34)cc2)cc1`, the GI50 was 0.48 µM and the TGI stood at 5.32 µM.

As to `CCN(CC)CCN1C(=O)c2c(c3c4cc(Br)ccc4[nH]c3c3ccc4ccccc4c23)C1=O`, the GI50 is 1.52 µM and the TGI was 3.45 µM.

`CC1(C)CCC(CN2CCN(c3ccc(C(=O)NS(=O)(=O)c4ccc(NCC5CCOCC5)c([N+](=O)[O-])c4)c(Oc4cnc5[nH]ccc5c4)c3)CC2)=C(c2ccc(Cl)cc2)C1`: the GI50 is 2.15 µM and the TGI turned out to be 7.16 µM.

In the case of `S=c1nc(/C=C/c2ccc(Cl)c(Cl)c2)[nH][nH]1`, the GI50 is greater than 100 µM and the TGI is greater than 100 µM.

In the case of `Cn1cc(-c2ccc3c(c2)ncn3-c2ccc(CC(=O)Nc3cc(C(C)(C)C)on3)cc2)cn1`, the GI50 was 2.83 µM and the TGI turned out to be 16.5 µM.

For `Cc1ccc2c(c1)/C(=N\N=C/c1cn(C(C)C)c3ccccc13)C(=O)N2`, the GI50 was 1.84 µM and the TGI was greater than 100 µM.

`C[C@@H](Oc1cc(-n2cnc3ccc(OCC4CCN(C)CC4)cc32)sc1C(N)=O)c1ccccc1C(F)(F)F`: the GI50 was 0.0442 µM and the TGI stood at 0.192 µM.

For `Oc1ccc(-c2nc(-c3ccc(F)cc3)c(-c3ccncc3)[nH]2)cc1`, the GI50 was 6.57 µM and the TGI worked out at 44.4 µM.

Source of the values: PubChem BioAssay (NCI).
